In US8222235B2, “2-methylene-19-nor-(20R)-1α-hydroxy-bishomopregnacalciferol” (Wisconsin Alumni Research Foundation, priority 2004, dated 2012):

Key:
[1] = as set forth in the '352, '861 and '622 patents; cited from earlier work
vitamin D receptors = biological target: T1, vitamin D receptors (Homo sapiens, UniProt P11473); details: as set forth in the '352, '861 and '622 patents; cited from earlier work
T1 sequence (P11473 1-427): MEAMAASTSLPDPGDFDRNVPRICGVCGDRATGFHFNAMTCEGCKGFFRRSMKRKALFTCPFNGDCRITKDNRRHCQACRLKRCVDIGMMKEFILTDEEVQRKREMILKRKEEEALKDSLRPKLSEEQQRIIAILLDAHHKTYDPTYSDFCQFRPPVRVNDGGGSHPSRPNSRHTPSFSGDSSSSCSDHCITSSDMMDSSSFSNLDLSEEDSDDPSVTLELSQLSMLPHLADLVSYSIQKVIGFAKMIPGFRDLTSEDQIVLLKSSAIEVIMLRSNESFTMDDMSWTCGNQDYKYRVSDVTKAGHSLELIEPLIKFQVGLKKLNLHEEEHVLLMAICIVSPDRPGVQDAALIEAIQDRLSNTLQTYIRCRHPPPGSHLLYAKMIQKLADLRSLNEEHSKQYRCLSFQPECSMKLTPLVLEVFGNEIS

[2] = as set forth in the '352, '861 and '622 patents; cited from earlier work; remark: listed apart in the source
[3] = biological target: T2, full-length recombinant rat vitamin D receptor (Rattus norvegicus, UniProt P13053); assay: Vitamin D receptor competitive binding with [3H]-1,25-(OH)2-D3; details: competition with [3H]-1,25-(OH)2-D3; FIG. 1
T2 construct: Full-length recombinant rat receptor was expressed in E. coli BL21(DE3) Codon Plus RIL cells; histidine tag (C); made in house; host or cells: E. coli BL21(DE3) Codon Plus RIL
T2 sequence (P13053 1-423): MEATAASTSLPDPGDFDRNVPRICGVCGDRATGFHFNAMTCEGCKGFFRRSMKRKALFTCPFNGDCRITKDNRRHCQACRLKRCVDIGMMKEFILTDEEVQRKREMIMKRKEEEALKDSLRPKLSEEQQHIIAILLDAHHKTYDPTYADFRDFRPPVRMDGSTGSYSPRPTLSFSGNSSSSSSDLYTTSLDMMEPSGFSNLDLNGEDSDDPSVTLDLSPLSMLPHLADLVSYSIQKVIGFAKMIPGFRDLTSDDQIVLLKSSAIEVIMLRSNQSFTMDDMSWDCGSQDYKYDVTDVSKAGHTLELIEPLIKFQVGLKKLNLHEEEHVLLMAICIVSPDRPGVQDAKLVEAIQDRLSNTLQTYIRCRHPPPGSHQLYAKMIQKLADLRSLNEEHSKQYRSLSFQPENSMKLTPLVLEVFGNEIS
Source text: FIG. 1 is a graph comparing the relative activity of (20R)-2 MbisP and 1,25(OH)2D3 to compete for binding with [^3H]-1,25-(OH)2-D3 to the full-length recombinant rat vitamin D receptor.
Full-length recombinant rat receptor was expressed in E. coli BL21(DE3) Codon Plus RIL cells and purified to homogeneity using two different column chromatography systems. The first system was a nickel affinity resin that utilizes the C-terminal histidine tag on this protein. The protein that was eluted from this resin was further purified using ion exchange chromatography (S-Sepharose Fast Flow). Aliquots of the purified protein were quick frozen in liquid nitrogen and stored at −80° C. until use. For use in binding assays, the protein was diluted in TEDK50 (50 mM Tris, 1.5 mM EDTA, pH 7.4, 5 mM DTT, 150 mM KCl) with 0.1% Chaps detergent. […]
Unlabeled ligands were dissolved in ethanol and the concentrations determined using UV spectrophotometry (1,25(OH)2D3: molar extinction coefficient=18,200 and λmax=265 nm; Analogs: molar extinction coefficient=42,000 and λmax=252 nm). […]
Radiolabeled and unlabeled ligands were added to 100 mcl of the diluted protein at a final ethanol concentration of ≦10%, mixed and incubated overnight on ice to reach binding equilibrium. […] Total binding was determined from the tubes containing only radiolabeled ligand.

[4] = Bone calcium mobilization (serum calcium on low calcium diet); type: in vivo, Sprague-Dawley rats; details: rats, ip, four consecutive doses, even very high concentrations; FIG. 4
Source text: FIG. 4 is a bar graph comparing the bone calcium mobilization activity of (20R)-2 MbisP with that of 1,25(OH)2D3.
(§1) Male, weanling Sprague-Dawley rats were placed on Diet 11 (0.47% Ca) diet +AEK for one week followed by Diet 11 (0.02% Ca) +AEK for 3 weeks. The rats were then switched to a diet containing 0.47% Ca for one week followed by two weeks on a diet containing 0.02% Ca. Dose administration began during the last week on 0.02% calcium diet. Four consecutive ip doses were given approximately 24 hours apart. Twenty-four hours after the last dose, blood was collected from the severed neck and the concentration of serum calcium determined as a measure of bone calcium mobilization. The first 10 cm of the intestine was also collected for intestinal calcium transport analysis using the everted gut sac method.

[5] = Hypercalcemia: serum calcium in adult rats; type: in vivo, Sprague-Dawley rats; details: ip, doses as high as 45 nmol/day, FIG. 6
Experimental: FIG. 6 is a bar graph comparing the serum calcium levels in adult rats after administration of (20R)-2 MbisP and 1,25(OH)2D3.
(§2) Adult, female Sprague-Dawley rats were obtained from Harlan (Madison, Wis.).
(§3) Upon receipt, the animals were identified by individual tail marks. Animals were housed in suspended, stainless steel, wire-bottom cages. Each cage contained one animal. The animal rooms were maintained at a temperature of 68 to 72° F. and a relative humidity of 25 to 75%. The holding rooms were set to provide 12 hours of light per day. Water and a purified rodent diet (Suda et al., Purified Rodent Diet-Diet 11) containing […] 0.3% phosphorus and fat soluble vitamins A, D, E and K were provided ad libitum.
(§4) Animals were randomly assigned to treatment groups (5 animals/group). All doses were administered intraperitoneally in 100 microliters of propylene glycol. Four to seven consecutive doses were given approximately 24 hours apart. Dosing was initiated after the animals had been allowed to acclimate for at least one week. […]
Twenty-four hours after the final dose, approximately 1 ml of blood was collected from the tail artery of each experimental animal. […] The level of calcium was determined by diluting the serum into 0.1% lanthum chloride and measuring the absorbance on an atomic absorption spectrophotometer (Perkin Elmer Model 3110, Shelton, Conn.).

[6] = test system: 24-hydroxylase (24Ohase) gene promoter; assay: In vitro transcription assay (luciferase reporter in ROS 17/2.8 cells); type: cell-based; details: FIG. 3
Experimental: FIG. 3 is a graph comparing the in vitro transcription activity of (20R)-2MbisP with that of 1,25(OH)2D3.
Transcription activity was measured in ROS 17/2.8 (bone) cells that were stably transfected with a 24-hydroxylase (24Ohase) gene promoter upstream of a luciferase reporter gene (Arbour et al., 1998). Cells were given a range of doses. Sixteen hours after dosing the cells were harvested and luciferase activities were measured using a luminometer. RLU=relative luciferase units.

[7] = Intestinal calcium transport (everted gut sac method); type: in vivo, Sprague-Dawley rats; details: rats, ip, four consecutive doses, even very high concentrations; FIG. 5
Source text: FIG. 5 is a bar graph comparing the intestinal calcium transport activity of (20R)-2 MbisP with that of 1,25(OH)2D3.
as §1

[8] = test system: parathyroid hormone (PTH); assay: PTH suppression in adult rats; type: in vivo, Sprague-Dawley rats; details: ip, 7 consecutive days, FIG. 7
Experimental: FIG. 7 is a bar graph comparing the percent parathyroid hormone (PTH) suppression in adult rats of (20R)-2 MbisP with 1,25(OH)2D3.
as §2, §3, §4
Twenty-four hours after the final dose, blood was collected from the tail artery and the concentration of bioactive serum PTH was measured using the rat BioActive Intact PTH ELISA Kit from Immutopics, Inc. (San Clemente, Calif.).

[9] = test system: Human promyelocytic leukemia (HL60) cells; assay: HL-60 differentiation (nitro blue tetrazolium reduction); type: cell-based; details: HL-60 cells in culture; FIG. 2
Experimental: FIG. 2 is a graph comparing the percent HL-60 cell differentiation as a function of the concentration of (20R)-2 MbisP with that of 1,25(OH)2D3.
The study drugs were dissolved in ethanol and the concentrations determined using UV spectrophotometry. Serial dilutions were prepared so that a range of drug concentrations could be tested without changing the final concentration of ethanol (≦0.2%) present in the cell cultures.
Human promyelocytic leukemia (HL60) cells were grown in RPMI-1640 medium containing 10% fetal bovine serum. The cells were incubated at 37° C. in the presence of 5% CO2.
HL60 cells were plated at 1.2×10^5 cells/ml. Eighteen hours after plating, cells in duplicate were treated with drug. Four days later, the cells were harvested and a nitro blue tetrazolium reduction assay was performed (Collins et al., 1979; J. Exp. Med. 149:969-974). The percentage of differentiated cells was determined by counting a total of 200 cells and recording the number that contained intracellular black-blue formazan deposits. Verification of differentiation to monocytic cells was determined by measuring phagocytic activity (data not shown).

| Compound | cell differentiation activity [1] | binding activity to vitamin D receptors (vitamin D receptors) | calcemic activity as compared to 1α,25-dihydroxyvitamin D3 [2] | binding to the recombinant vitamin D receptor relative to 1,25-(OH)2D3 [3] | bone calcium mobilization [4] | hypercalcemia (serum calcium) [5] | times less active than 1,25-(OH)2D3 in turning on transcription of a reporter gene coupled to the CYP-24 promoter [6] | intestinal calcium transport [7] | suppression of parathyroid hormone (PTH) in the plasma [8] | times less active than 1,25-(OH)2D3 in causing the differentiation of HL-60 cells [9] |
| --- | --- | --- | --- | --- | --- | --- | --- | --- | --- | --- |
| 1α-hydroxy-2-methylene-19-nor-(20S)-homopregnacalciferol | relatively high | relatively high | little if any | – | – | – | – | – | – | – |
| 1α-hydroxy-2-methylene-19-nor-bishomopregnacalciferol | relatively high | relatively high | little if any | – | – | – | – | – | – | – |
| C=C1[C@H](O)CC(=C/C=C2\CCC[C@]3(C)C([C@H](C)CC)CC[C@@H]23)C[C@H]1O (stereo in doubt) [2-Methylene-19-nor-(20R)-1α-hydroxy-bishomopregnacalciferol] | – | – | – | approximately equally effective as 1,25-(OH)2D3 | does not support | failed to cause hypercalcemia | about 5 times | does not support | considerable activity | about 5 times |
| C=C1[C@H](O)CC(=C/C=C2\CCC[C@]3(C)[C@@H](CC)CC[C@@H]23)C[C@H]1O [1α-Hydroxy-2-methylene-19-nor-pregnacalciferol] | relatively high | relatively high | little if any | – | – | – | – | – | – | – |
